Reference: US20070128217A1 (priority 2003, published 2007)

How the values were obtained:
[1] = system: antibodies in sera from SARS patients (sera 1a, 1b, 2, 6, 37, 62, London, SARS-yellow, SARS-green); type: binding, human; design: Binding of serum 6 to linear peptides of protein X1 of SARS-CoV Urbani / Binding of serum 37 to linear peptides of protein X1 of SARS-CoV Urbani / Binding of serum 6 to looped/cyclic peptide (PEPSCAN-ELISA) / Binding of serum 37 to looped/cyclic peptide (PEPSCAN-ELISA) / Binding of serum 37 to looped/cyclic peptides of protein X1 of SARS-CoV Urbani / Binding of serum 6 to linear peptides of protein X2 / Binding of serum 37 to linear peptides of protein X2 / Binding of serum 37 to looped/cyclic peptides of protein X2 of SARS-CoV Urbani / Binding of serum 6 to linear peptides of protein M of SARS-CoV Urbani / Binding of serum 37 to linear peptides of protein M of SARS-CoV Urbani / Binding of serum 6 to looped/cyclic peptides of protein M of SARS-CoV Urbani / Binding of serum 37 to looped/cyclic peptides of protein M of SARS-CoV Urbani / Binding of serum 6 to linear peptides of protein X3 of SARS-CoV Urbani / Binding of serum 37 to linear peptides of protein X3 of SARS-CoV Urbani / Binding of serum 37 to looped/cyclic peptides of protein X3 of SARS-CoV Urbani / Binding of serum 6 to linear peptides of protein X4 of SARS-CoV Urbani / Binding of serum 37 to linear peptides of protein X4 of SARS-CoV Urbani / Binding of serum 37 to looped/cyclic peptides of protein X4 of SARS-CoV Urbani / Binding of serum 6 to linear peptides of protein X5 of SARS-CoV Urbani / Binding of serum 37 to linear peptides of protein X5 of SARS-CoV Urbani / Binding of serum 37 to looped/cyclic peptides of protein X5 of SARS-CoV Urbani / Binding of serum 6 to linear peptides of protein N of SARS-CoV Urbani / Binding of serum 37 to linear peptides of protein N of SARS-CoV Urbani / Binding of serum 6 to linear peptide (PEPSCAN-ELISA) / Binding of serum 1a to looped/cyclic peptides of protein N of SARS-CoV Urbani / Binding of serum 1b to looped/cyclic peptides of protein N of SARS-CoV Urbani / Binding of serum 2 to looped/cyclic peptides of protein N of SARS-CoV Urbani / Binding of serum 6 to looped/cyclic peptides of protein N of SARS-CoV Urbani / Binding of serum 37 to looped/cyclic peptides of protein N of SARS-CoV Urbani / Binding of serum 62 to looped/cyclic peptides of protein N of SARS-CoV Urbani / Binding of serum London to looped/cyclic peptides of protein N of SARS-CoV Urbani / Binding of serum SARS-green to looped/cyclic peptides of protein N of SARS-CoV Urbani: unit not given here
[2] = system: rabbit serum obtained by immunizing a rabbit with the SARS-CoV strain Frankfurt 1; type: binding; design: Binding of a rabbit serum to linear peptides / Binding of a rabbit serum to looped peptides / Rabbit serum linear peptides / Rabbit serum looped peptides / Binding of a rabbit serum to linear peptides of protein N of SARS-CoV Urbani (Rabbit serum linear peptides) / Binding of a rabbit serum to looped/cyclic peptides of protein N of SARS-CoV Urbani (Rabbit serum looped peptides): unit not given here
[3] = system: recombinant human anti-SARS-CoV antibody 03-018; type: binding; design: Binding of antibody 03-018 to linear peptides of the N protein of SARS-CoV Urbani / Binding of antibody 03-018 to looped/cyclic peptides of the N protein of SARS-CoV Urbani: unit not given here
[4] = system: control sera (pooled serum of ten healthy LUMC hospital workers; commercial negative donor pooled serum from the Dutch bloodbank); type: binding, human; design: Binding of Control serum LUMC to linear peptides / Binding of Control serum Blood-bank to linear peptides / Binding of Control serum LUMC to looped peptides / Binding of Control Serum Blood-Bank to Looped peptides / Binding of Control serum LUMC to linear peptides of the protein M of SARS-CoV Urbani / Binding of Control serum Blood-bank to linear peptides of the protein M of SARS-CoV Urbani / Binding of Control serum LUMC to looped peptides of the protein M of SARS-CoV Urbani / Binding of Control Serum Blood-Bank to Looped peptides of the protein M of SARS-CoV Urbani: unit not given here

Row | Sequence | Binding of serum 1a to linear peptide (PEPSCAN-ELISA) [1] | Binding of serum 1a to looped/cyclic peptides of protein N of SARS-CoV Urbani [1] | Binding of serum 1b to linear peptide (PEPSCAN-ELISA) [1] | Binding of serum 1b to looped/cyclic peptides of protein N of SARS-CoV Urbani [1] | Binding of serum 2 to linear peptide (PEPSCAN-ELISA) [1] | Binding of serum 2 to looped/cyclic peptides of protein N of SARS-CoV Urbani [1] | Binding of serum 6 to looped/cyclic peptides of protein N of SARS-CoV Urbani [1] | Binding of serum 37 to looped/cyclic peptides of protein N of SARS-CoV Urbani [1] | Binding of serum 62 to looped/cyclic peptides of protein N of SARS-CoV Urbani [1] | Binding of serum London to looped/cyclic peptides of protein N of SARS-CoV Urbani [1] | Binding of serum SARS-green to looped/cyclic peptides of protein N of SARS-CoV Urbani [1] | Binding of serum SARS-yellow to looped/cyclic peptides of protein N of SARS-CoV Urbani [1] | Binding of a rabbit serum to linear peptides of protein N of SARS-CoV Urbani (Rabbit serum linear peptides) [2] | Binding of a rabbit serum to looped/cyclic peptides of protein N of SARS-CoV Urbani (Rabbit serum looped peptides) [2] | Binding of antibody 03-018 to linear peptides of the N protein of SARS-CoV Urbani [3] | Binding of antibody 03-018 to looped/cyclic peptides of the N protein of SARS-CoV Urbani [3] | Binding of Control Serum Blood-Bank to Looped peptides [4] | Binding of Control serum Blood-bank to linear peptides [4] | Binding of Control serum LUMC to linear peptides [4] | Binding of Control serum LUMC to looped peptides [4] | other results
1 | GDQDLIRQGTDYKHW | 0.2 | 0.4 | 0.1 | 0.2 | 0.2 | 0.4 | 0.3 | 0.6 | 0.5 | 0.4 | 0.4 | 0.3 | 0.1 | 0.5 | 0.1 | 0.2 | 0.6 | 0.9 | 0.8 | 0.5 | Binding of serum 6 to linear peptide (PEPSCAN-ELISA) [1]: 0.3; Binding of serum 37 to linear peptide (PEPSCAN-ELISA) [1]: 0.6; Binding of serum 62 to linear peptide (PEPSCAN-ELISA) [1]: 0.7; Binding of serum London to linear peptide (PEPSCAN-ELISA) [1]: 0.9; Binding of serum SARS-green to linear peptide (PEPSCAN-ELISA) [1]: 0.5; Binding of serum SARS-yellow to linear peptide (PEPSCAN-ELISA) [1]: 0.7
2 | KHIDAYKTFPPTEPK |  | 0.2 |  | 0.1 |  | 0.2 | 0.1 | 0.4 | 0.3 | 0.3 | 0.1 | 0.1 | 0.1 | 0.2 | 0.1 | 0.2 |  |  |  |  | Binding of serum 1a to linear peptides of protein N of SARS-CoV Urbani [1]: 0.3; Binding of serum 1b to linear peptides of protein N of SARS-CoV Urbani [1]: 0.1; Binding of serum 2 to linear peptides of protein N of SARS-CoV Urbani [1]: 0.3; Binding of serum 6 to linear peptides of protein N of SARS-CoV Urbani [1]: 0.2; Binding of serum 37 to linear peptides of protein N of SARS-CoV Urbani [1]: 0.7; Binding of serum 62 to linear peptides of protein N of SARS-CoV Urbani [1]: 0.8; Binding of serum London to linear peptides of protein N of SARS-CoV Urbani [1]: 0.5; Binding of serum SARS-green to linear peptides of protein N of SARS-CoV Urbani [1]: 0.5; Binding of serum SARS-yellow to linear peptides of protein N of SARS-CoV Urbani [1]: 0.8; Control Serum Blood-Bank Looped peptides [4]: 0.3; Control serum Blood-bank linear peptides [4]: 0.8; Control serum LUMC linear peptides [4]: 0.7; Control serum LUMC looped peptides [4]: 0.3
3 | SRSSSRSRGNSRNST | 0.2 | 0.3 | 0.1 | 0.2 | 0.2 | 0.3 | 0.3 | 0.5 | 0.4 | 0.4 | 0.2 | 0.4 | 0.1 | 0.3 | 0.1 | 0.2 | 0.6 | 0.7 | 0.7 | 0.6 | Binding of serum 6 to linear peptide (PEPSCAN-ELISA) [1]: 0.2; Binding of serum 37 to linear peptide (PEPSCAN-ELISA) [1]: 0.4; Binding of serum 62 to linear peptide (PEPSCAN-ELISA) [1]: 0.6; Binding of serum London to linear peptide (PEPSCAN-ELISA) [1]: 0.4; Binding of serum SARS-green to linear peptide (PEPSCAN-ELISA) [1]: 0.2; Binding of serum SARS-yellow to linear peptide (PEPSCAN-ELISA) [1]: 0.7
4 | VRGGDGKMKELSPRW |  | 0.3 |  | 0.2 |  | 0.5 | 0.2 | 0.6 | 0.6 | 0.5 | 0.1 | 0.3 | 0.2 | 0.4 | 0.1 | 0.2 | 0.7 | 0.6 | 0.8 | 0.7 | Binding of serum 1a to linear peptides of protein N of SARS-CoV Urbani [1]: 0.2; Binding of serum 1b to linear peptides of protein N of SARS-CoV Urbani [1]: 0.1; Binding of serum 2 to linear peptides of protein N of SARS-CoV Urbani [1]: 0.2; Binding of serum 6 to linear peptides of protein N of SARS-CoV Urbani [1]: 0.2; Binding of serum 37 to linear peptides of protein N of SARS-CoV Urbani [1]: 0.6; Binding of serum 62 to linear peptides of protein N of SARS-CoV Urbani [1]: 0.6; Binding of serum London to linear peptides of protein N of SARS-CoV Urbani [1]: 0.4; Binding of serum SARS-green to linear peptides of protein N of SARS-CoV Urbani [1]: 0.4; Binding of serum SARS-yellow to linear peptides of protein N of SARS-CoV Urbani [1]: 0.7
